# Entries after “also recorded” stand apart in the source; their conditions may differ. Peptide text beside a SMILES is read from it.
# What was measured:
# [1] = tested on: Human H4 neuroglioma cells; experiment: LDH release cytotoxicity assay
# [2] = target: streptavidin (Streptomyces avidinii, UniProt P22629); experiment: Binding to free streptavidin by intrinsic tryptophan fluorescence; details: 0.8 μM streptavidin
# Description: In terms of secondary structure, evaluated via Fourier Transform Infra Red (FITR) spectroscopy (FIG. 5b), the observations echo the results obtained with (non-biotinylated) STVIIE fibrils (confront with FIG. 3f). Addition, via a PEG9 linker, of a biotin moiety to STVIIE N-terminus results in biotin functionalized STVIIE amyloid fibrils. These fibrils show both the […] and the antiparallel cross β-sheet peaks, being quite similar to the spectra obtained with free (non-biotinylated) STVIIE. Then, the activity of the bioactive molecule (biotin) attached to the fibrils was tested, namely the ability to bind its target bridge element molecule (streptavidin), when free in solution (FIG. 5c-g). […] Briefly, the fluorescence intensity spectra of 0.8 μM streptavidin in solution, treated with buffer (FIG. 5c, leftmost graph), free biotin (FIG. 5c, second graph from the left), non-biotinylated free amyloid peptide (FIG. 5c, third from the left) or biotinylated amyloidogenic peptide fibrils (FIG. 5c, rightmost graph) were compared. A drop on the fluorescence signal (decreased quantum yield) accompanied by peak shifting towards the left (blue shift) indicates streptavidin binding to biotin (FIG. 5c). […] The addition of biotinylated peptide to streptavidin produces a similar blue shift of the fluorescence emission maximum (from 340 to 330 nm), as observed when free biotin is added. […]
# [3] = Sample preparation: highest concentration at which the peptide fully dissolves; format: physicochemical; details: for highest final concentration that they were able to be fully dissolved: 50 mM Tris-HCl pH 7.5, 5 mM EDTA buffer, room temperature
# Description: STVIIE, GNNQQNY, QVQIIE and ISFLIF were prepared at the highest final concentration that they were able to be fully dissolved, respectively 1 mg/mL (STVIIE and GNNQQNY), 0.55 mg/mL (QVQIIE) and 0.1 mg/mL (ISFLIF). For all peptide samples the final incubation buffer was 50 mM Tris-HCl pH 7.5, 5 mM EDTA buffer. Briefly, after weighing the peptide, half of the final volume of H2O ultrapure was added. A short vortex of approximately 1500 rpm and 30 seconds and an ultrasound bath of 280 seconds in water/ice were performed two times. The other half of the final volume was then added, containing 100 mM Tris-HCl pH 7.5, 10 mM EDTA buffer was added, with the peptide samples being therefore in the final incubation buffer. Before incubation, two other cycles of vortex and ultrasound bath were performed. The final peptide solution sample was incubated at room temperature.
# [4] = Atomic force microscopy of amyloid fibril formation, morphology and dimensions; format: physicochemical; details: AFM, 2 weeks incubation at physiologic pH
# Description: According to experimental procedures at the host lab^57-59, the samples were placed in poly-1-lysine slides and dried using a vacuum chamber. When fully dried, the samples were rinsed with ultra-pure water and dried with a gentle N2 air flux. A NanoWizard II atomic force microscope (JPK Instruments, Berlin, Germany), mounted on the top of an Axiovert 200 inverted optical microscope (Zeiss, Jena, Germany), was used for the microscopic experiments. The AFM head is equipped with a 5.85-μm z-range linearized piezoelectric scanner and an infrared laser. For the acquisition of the different AFM images, it was used a ACL-50 tip (Applied NanoStructures, Inc., California, USA) with a spring constant between 20-95 N/m and a frequency between 145-230 kHz. Amyloid fibrils were acquired in intermittent (air) mode with a setpoint of between 0.4-0.5 V, a line rate of 0.7-0.8 Hz, an IGain of 20-50 Hz and a PGain of 0.001-0.004. The images acquired were treated afterwards with the JPKSPM Data Processing (JPK Instruments, Berlin, Germany).
# The most promising amyloidogenic peptide is typically selected. For this purpose, atomic force microscopy (AFM) was employed. AFM is a technique that can be very useful in the acquisition of surface images with high resolution and sensibility, being therefore suitable for such studies of amyloid fibrils and employed in this analysis. […] Regarding GNNQQNY (FIG. 2, first row from the top), at the start of incubation there are no visible structures. At the end of the incubation period tested (2 weeks), heterogeneous structures are visible. […] In contrast, QVQIIE, ISFLIF and STVIIE peptides show amyloid morphologies at the end of the incubation period tested (FIG. 2). […] This is consistent with the β-sheet content of QVQIIE and ISFLIF at the end of the incubation period, measured via Fourier transform infrared spectroscopy (FIG. 12) and binding profile to Congo Red (FIG. 13). […] As for STVIIE, it forms clear fibril structures in the conditions tested. […]
# [5] = FTIR spectroscopy of secondary structure; format: physicochemical; details: followed for 6 hours
# Description: Following previous approaches^11,54, peptide samples were applied to the FTIR sample holder at 298.15 K. InfraRed spectra were recorded on a Bruker Tensor 27 infrared spectrophotometer (Bruker Optik GmbH, Ettlingen, Germany) equipped with a Bio-ATR II accessory. The spectrophotometer was continuously purged with dried air. Spectra were recorded at a spectral resolution of 4 cm^−1 and 120 accumulations were performed per measurement. The final spectra were corrected to the baseline (the final incubation buffer) and rescaled in the amide I area (˜1600 to ˜1700 cm^−1).
# The formation of aggregates by STVIIE quickly leads the larger elements to deposit from solution. This hinders circular dichroism studies of STVIIE secondary structure. For this reason Fourier transform infra-red (FTIR) spectroscopy was used instead (FIG. 3f-g). The changes in secondary structure content were followed for 6 hours (FIG. 3f). Then, after 6 hours, when amyloid structures are readily visible (FIG. 3a), the experiment was terminated. This time frame is also chosen given that for nanotechnology applications short incubation periods can be necessary and/or preferable. The peptides spectra are consistent with antiparallel β-sheet/aggregated strands (1675-1695 cm^−1) and β-sheet (1625-1640 cm^−1) secondary structure being present (FIG. 3f). […]
compound,measurement,setting,value
Triton [reference compound],cell death,"[1]; 0.2, 2.0 and 20 μM, 6 to 24 hours, buffer control 10-15%",100%
"O=C(O)CCCC[C@@H]1SC[C@@H]2NC(=O)N[C@@H]21 [biotin, 5-[(3aS,4S,6aR)-2-oxohexahydro-1H-thieno[3,4-d]imidazol-4-yl]pentanoic acid]",concentration at which the peak shift achieves saturation,[2],~4 µM
same,blue shift of streptavidin fluorescence emission peak maximum,[2]; peptide and/or biotin 0 to 13.6 μM,10 nm
CC[C@H](C)[C@H](N)C(=O)N[C@@H](CO)C(=O)N[C@@H](Cc1ccccc1)C(=O)N[C@@H](CC(C)C)C(=O)N[C@H](C(=O)N[C@@H](Cc1ccccc1)C(=O)O)[C@@H](C)CC [ISFLIF] (H-ISFLIF-OH; N-terminus and C-terminus assumed),solubility in physiological conditions,[3]; physiological conditions,difficult to dissolve at high concentrations
QVQIIE,morphology at end of incubation,[4],amyloid-like gel structure
same,highest final concentration that they were able to be fully dissolved,[3],0.55 mg/mL
"Aβ(1-42): Amyloid β peptide (involved in Alzheimer's disease), positive control of fibrillization [reference compound]",morphology at end of incubation,[4],form typical amyloid fibrils
GNNQQNY [short amyloidogenic peptide],morphology at end of incubation,[4],not consistent with the well-defined amyloid fibril morphology
same,highest final concentration that they were able to be fully dissolved,[3],1 mg/mL
CC[C@H](C)[C@H](NC(=O)[C@@H](NC(=O)[C@@H](NC(=O)[C@@H](N)CO)[C@@H](C)O)C(C)C)C(=O)N[C@H](C(=O)N[C@@H](CCC(=O)O)C(=O)O)[C@@H](C)CC [STVIIE] (H-STVIIE-OH; N-terminus and C-terminus assumed),time for relative ratio of β-sheet secondary structure to stabilize,[5],less than 3 hours
same,toxicity to cells (LDH release),"[1]; fibrils at 0.2, 2 and 20 μM, 6 and 24 hours",not toxic; also recorded: not cytotoxic
